Measurements reported in patent publication US8642357B2, “Semaphorin 7A plays a critical role in TGF-β1-induced pulmonary fibrosis and alveolar destruction” (Yale University, priority 2009, dated 2014).

System: C57BL/6 female mice
Assay: Bleomycin-induced pulmonary fibrosis and collagen accumulation
Assay type: in vivo
Conditions: 0.075 Unit/mouse intratracheal; most impressive 3 weeks after administration
Description: Animals were anesthetized, a median sternotomy was performed, and right heart perfusion was accomplished with calcium and magnesium-free phosphate-buffered saline (PBS). The heart and lungs were then removed en bloc. The right lung was frozen in liquid nitrogen and stored at −80° C. until used. Collagen content was determined by quantifying total soluble collagen using the Sircol Collagen Assay kit (Biocolor) according to the manufacturer's instructions. The data is expressed as the collagen content of the entire right lung.
The lungs were removed en bloc as described above, inflated at 25 cm pressure with PBS containing 0.5% low melting point agarose gel, fixed, embedded in paraffin, sectioned and stained. Hematoxylin and eosin, and Mallory's trichrome stains were performed in the Research Histology Laboratory of the Department of Pathology at the Yale University School of Medicine.
Bleomycin (0.075 Unit/mouse) or vehicle control were administered to C57BL/6 female mice as previously described by Jiang et al. (2004, J Clin Invest. 114:291-299).
Studies were also undertaken to determine if the biology of SEMA 7A that was defined using the Tg modeling system was also relevant to fibrotic responses that were induced by other stimuli. […]

## Bleomycin
  Pulmonary fibrosis and collagen accumulation: significant increase
